We go through 10 molecules from US20080227752A1, “Methods to Inhibit Histone Acetyltransferase Using Glycosaminoglycans” (Trustees of Boston University, priority 2004, published 2008).

Test [1] has as its target T1, p300 HAT domain (Homo sapiens, UniProt Q09472).
T1 construct: 20 U/mL of HAT enzyme (p300 HAT domain; from Upstate); purchased Upstate (Lake Placid, N.Y.)
T1 sequence (Q09472 1287-1663 limits assumed): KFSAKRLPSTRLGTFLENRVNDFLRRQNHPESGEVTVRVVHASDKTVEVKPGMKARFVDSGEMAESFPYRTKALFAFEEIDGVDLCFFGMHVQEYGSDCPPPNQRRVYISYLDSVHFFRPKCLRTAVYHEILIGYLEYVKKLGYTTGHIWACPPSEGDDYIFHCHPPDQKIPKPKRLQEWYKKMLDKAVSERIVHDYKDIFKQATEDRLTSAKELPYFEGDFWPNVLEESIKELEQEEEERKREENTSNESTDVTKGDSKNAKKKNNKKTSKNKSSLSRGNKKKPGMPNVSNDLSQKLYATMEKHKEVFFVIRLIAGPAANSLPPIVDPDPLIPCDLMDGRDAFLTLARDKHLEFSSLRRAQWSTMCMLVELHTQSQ
In words: In vitro HAT activity assay, biotinylated histone H4 peptide substrate, streptavidin capture. Conditions: 10 ug/ml, p300, H4 peptide (FIG. 9). The test is classed as biochemical. As to the method: Biotinylated histone H4 peptide (substrate) is incubated with recombinant HAT enzyme (p300 catalytic domain) and ^3H-Acetyl-CoA, resulting in the covalent transfer of ^3H-acetate to the substrate. The ^3H-acetylated substrate can be extracted using immobilized streptavidin and counted in a scintillation counter. Thus, the amount of ^3H-acetylated substrate is a direct measure of HAT enzyme activity. Additional assays for HAT activity use core histones as the substrate and the ^3H-acetylated histone reaction products were separated from ^3H-Acetyl-CoA by membrane filtration.
Various concentrations of heparin were incubated in the presence of biotinylated histone H4 peptide, recombinant p300 catalytic domain, and [^3H]-acetyl-CoA for 1 hr at 30° C. Immobilized streptavidin was used to sequester the biotinylated substrate and was counted in a scintillation counter. Data presented are means of duplicates ±1 SE and are representative of five separate experiments. The amount of [^3H] associated with the immobilized streptavidin-biotinylated substrate in the absence of HAT enzyme (negative control) was 54.2±12.0.
HAT activity was assessed in vitro as outlined in FIG. 2. In a 1.7 mL microcentrifuge tube, 100 μL of substrate (biotinylated histone H4 peptide in 50 mM Tris, pH 7.4, 1 mM EDTA; from Pierce), 100 μL of a 5 mg/mL BSA solution (in H2O), 10.5 μL of 10×HAT buffer (500 mM Tris, pH 7.4, 10 mM EDTA), 20 U/mL of HAT enzyme (p300 HAT domain; from Upstate), and 1 μCi/mL of [^3H] Acetyl-CoA (Amersham) were mixed together and the reaction was allowed to proceed at 30° C. for 1 hour. Following this incubation, 100 μL of a 1:1 slurry of immobilized streptavidin (Pierce) pre-equilibrated in 1×HAT buffer (50 mM Tris, pH 7.4, 1 mM EDTA) was added and the sample was incubated for 30 min at RT on a rotating platform. After centrifugation at 10,000 g for 4 min, the supernatant containing the excess reactants was removed and the pellet containing the acetylated substrate bound to the immobilized streptavidin was washed 3 times with 500 μL RIPA buffer (50 mM Tris, pH 7.4, 150 mM NaCl, 1 mM EDTA, 1% NP-40, 0.5% SDC, 0.1% SDS). After the final wash, the pellet was resuspended in 500 μL 1×HAT buffer, diluted in EcoLite, and counted in a scintillation counter. Because of sample volume restrictions, reaction volumes were scaled down in some experiments.

Test [2] addresses T2, pCAF (Homo sapiens, UniProt Q92831).
T2 construct: purchased BIOMOL International (Plymouth Meeting, Pa.)
In words: Core histone acetylation filter binding HAT assay, pCAF. In kind it is biochemical. The settings on record: core histones; for inhibitory activity on pCAF HAT: range of concentrations tested. As to the method: In the presence of 0.5 μCi [^3H]acetyl Co A, 10 μg core histones was incubated with either 0.5 μg pCAF (filled circles, […]) or 0.83 μg p300 HAT domain (open circles, ∘) and the indicated heparin concentrations for 30 minutes at 30° C. Formation of [^3H]acetylated core histones was determined by vacuum filtration of the samples across a nitrocellulose membrane and quantitated by liquid scintillation counting. The data is expressed as the mean % Control ±SD. Background CPM in samples without added enzyme was 5781.25 while [^3H]acetylated histone CPM in samples without heparin were 16484.5 for the pCAF containing samples and 9960.5 for the p300 HAT domain samples.
10 μg core histones were incubated with 0.5 μg pCAF, 0.5 μCi [^3H]acetyl Co A and the indicated concentrations of chondroitin sulfate (filled circles, […]), dextran (open circles, ∘), D-glucosamine (filled squares, ▪), hyaluronic acid (open squares, □) or keratan sulfate (filled triangles, ▴) for 30 minutes at 30° C. 35 μl aliquots of the reaction mixtures were spotted onto nitrocellulose filter in a dot blot apparatus under vacuum to remove unincorporated [^3H]acetyl Co A. The sample wells and filters were washed with 50 mM tris pH 7.6 and the samples were processed for liquid scintillation counting. The data is expressed as the mean % Control ±SD. 100% is equal to the activity in the absence of any additives.
10 μg core histones was incubated with 0.5 μg pCAF, 0.5 μCi [^3H]acetyl Co A and the indicated concentrations of N-Desulfated Heparin (filled circles, […]) or Fully O-Desulfated Heparin (open circles, ∘) for 30 minutes at 30° C. 35 μl aliquots of the reaction mixtures were filtered through a nitrocellulose filter in a Bio Dot Apparatus under vacuum. The wells and filter were washed with 50 mM tris pH 7.6 and the membrane was processed for liquid scintillation counting. The data is expressed as the mean % Control ±SD.
FIGS. 15A and 15B show inhibition of pCAF HAT Activity by elastase generated proteoglycans. FIG. 15A, Proteoglycans (PG) were purified from pulmonary fibroblast elastase supernatants using anion exchange chromatographic methods. Heparan sulfate proteoglycan fragments (HSPGf) were generated by treating the PG fraction with 10 mU/ml chondroitinase ABC and repurifying the fragments by anion exchange chromatography. Core histones (10 μg) were incubated with 0.5 μg pCAF, 0.5 μCi [^3H]acetyl Co A and the indicated concentrations of PG (filled squares, ▪) or HSPGf (open squares, □) for 30 minutes at 30° C. 35 μl aliquots of the reaction mixtures were filtered through a nitrocellulose filter and the membrane was processed for liquid scintillation counting. The data is expressed as the mean % Control ±SD. FIG. 15B, Proteoglycans (PG) were purified from another preparation of pulmonary fibroblast elastase supernatants. Free GAG chains (B-PG) were generated by treating the PG fraction with alkaline borohydride and were recovered by anion exchange methods. Core histones (Core histones (10 μg) were incubated with 0.5 μg pCAF, 0.5 μCi [^3H]acetyl Co A and the indicated concentrations of PG (filled squares, ▪) or B-PG (open squares, □) for 30 minutes at 30° C. 35 μl aliquots of the reaction mixtures were filtered through a nitrocellulose filter and the membrane was processed for liquid scintillation counting. The data is expressed as the mean % Control ±SD.
10 μg core histones was incubated with 0.5 μg pCAF, 0.5 μCi [^3H]acetyl Co A and the indicated concentrations of 2-O-Desulfated Heparin ([…]) or 6-O-Desulfated Heparin (∘) for 30 minutes at 30° C. 35 μl aliquots of the reaction mixtures were filtered through a nitrocellulose filter in a Bio Dot Apparatus under vacuum. The wells and filter were washed with 50 mM tris pH 7.6 and the membrane was processed for liquid scintillation counting. The data is expressed as the mean % Control ±SD. […]

Entries after “also recorded” stand apart in the source; their conditions may differ.

T2 sequence (Q92831 whole entry): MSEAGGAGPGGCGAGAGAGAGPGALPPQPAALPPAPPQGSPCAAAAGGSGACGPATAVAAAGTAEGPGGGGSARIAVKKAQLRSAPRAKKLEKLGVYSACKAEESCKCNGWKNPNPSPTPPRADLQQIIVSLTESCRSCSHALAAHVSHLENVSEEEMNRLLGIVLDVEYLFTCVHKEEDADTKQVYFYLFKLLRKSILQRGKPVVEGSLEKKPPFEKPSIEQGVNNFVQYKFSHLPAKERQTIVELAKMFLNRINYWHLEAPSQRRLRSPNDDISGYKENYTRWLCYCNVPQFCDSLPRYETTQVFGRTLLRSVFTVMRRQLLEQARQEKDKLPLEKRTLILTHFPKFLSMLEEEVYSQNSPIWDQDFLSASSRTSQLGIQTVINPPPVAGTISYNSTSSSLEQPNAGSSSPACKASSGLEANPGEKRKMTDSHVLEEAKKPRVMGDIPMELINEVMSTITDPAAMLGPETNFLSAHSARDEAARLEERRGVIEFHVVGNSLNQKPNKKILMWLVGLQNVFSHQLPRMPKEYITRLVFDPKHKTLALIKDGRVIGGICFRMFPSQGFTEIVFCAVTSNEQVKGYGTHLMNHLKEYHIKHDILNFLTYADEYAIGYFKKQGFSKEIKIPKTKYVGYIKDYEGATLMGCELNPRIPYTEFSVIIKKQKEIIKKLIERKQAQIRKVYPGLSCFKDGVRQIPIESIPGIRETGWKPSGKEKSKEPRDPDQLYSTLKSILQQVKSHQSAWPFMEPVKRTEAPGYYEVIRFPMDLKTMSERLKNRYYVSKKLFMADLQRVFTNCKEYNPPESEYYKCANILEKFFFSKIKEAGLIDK

Consider N-desulfated heparin, for which, in test [1], the “HAT inhibitory activity of modified heparins” value (“HAT inhibitory activity” below) was “nearly eliminated HAT (p300) inhibition”. The “50% inhibition (IC50)” value in test [2] (30 minutes 30° C) was around 20 µg/mL.

In the case of chondroitin sulfate, the “inhibitory activity on pCAF HAT” value in test [2] was “showed inhibition”.

Regarding 2-O desulfated heparin, the “HAT inhibitory activity” value in test [1] is on record as “retained HAT inhibitory activity; also recorded: showed reduced activity when compared to heparin”. The “inhibitory activity on pCAF HAT” value in test [2] is recorded as “did not result in significant loss of function”.

In the case of keratan sulfate, the “inhibitory activity on pCAF HAT” value in test [2] is recorded as “showed inhibition”.

Regarding hyaluronic acid, in test [2], the “effectiveness relative to heparin and other GAGs” value is listed as “the least effective”; the “inhibitory activity on pCAF HAT” value is on record as “showed inhibition”.

Regarding `O=C[C@H](O)[C@@H](O)[C@H](O)[C@H](O)C(=O)O` [glucuronic acid, reference compound], the “inhibitory activity on pCAF HAT” value in test [2] is on record as “none of the monosaccharides showed any significant inhibitory activity”.

With dextran [reference compound], the “inhibitory activity on pCAF HAT” value in test [2] was “did not show any inhibitory activity”.

For the molecule 6-O desulfated heparin, in test [1], the “HAT inhibitory activity” value is “retained HAT inhibitory activity; also recorded: showed reduced activity when compared to heparin”. The “inhibitory activity on pCAF HAT” value in test [2] is “did not result in significant loss of function”.

As for `N[C@H]1C(O)O[C@H](CO)[C@@H](O)[C@@H]1O` (stereo partly drawn) [glucosamine, D-glucosamine, reference compound], the “inhibitory activity on pCAF HAT” value in test [2] is “none of the monosaccharides showed any significant inhibitory activity”.

Consider `CC(=O)N[C@H]1C(O)O[C@H](CO)[C@@H](O)[C@@H]1O` (stereo partly drawn) [N-acetyl glucosamine, N-Acetyl-D-glucosamine, reference compound], for which the “inhibitory activity on pCAF HAT” value in test [2] is “none of the monosaccharides showed any significant inhibitory activity”.
